Experimental data: PubChem BioAssay AID1963825 (Molecular Pharmacology Branch, DTP, NCI, 2024)
Where “and” joins values, the source holds several entries; their conditions need not be identical. Identical values can stand only once.

Assay: Anticancer human tumor 997537-175-T-J1-PDC patient-derived colon adenocarcinoma cell line growth inhibition [POLQ]
Settings: 997537-175-T-J1-PDC complex spheroid viability, combination with POLQ inhibitors; for viability, T/C: stronger effect = lower value
Protocol: Multicellular complex tumor spheroid response to Polymerase (POL) inhibitors (novobiocin, ART-558, RP6685) in combination with a variety of drugs and investigational agents in selected tumor cell lines
The POL inhibitors (novobiocin, ART-558, and RP6685) were evaluated both individually and in combination with standard of care and investigational anticancer small molecules within a complex spheroid model of solid tumors. . Complex spheroids include a stromal component modeled by human endothelial cells (HUVEC) and fibroblasts modeled by human mesenchymal stem cells (MSCs). The concentration ranges selected for each drug and investigational agent were based upon clinically achievable concentrations if the clinical Cmax of the agent was known.
Compounds. The drugs and investigational agents: novobiocin (NSC847541), ART-558 (NSC835418), RP-6685 (NSC848927), peposertib (NSC802822), ceralasertib (NSC780249), elimusertib (NSC800525), camonsertib (NSC841442), AZD-1390 (NSC803789), olaparib (NSC753686), talazoparib (NSC767125), rucaparib (NSC756644), sotorasib (NSC818433), MRTX-1133 (NSC836407), SN-38 (NSC673596), topotecan (NSC609699), epotoside (NSC141540), doxorubicin (NSC123127), gemcitabine (NSC613327), 5-fluorouracil (NSC19893), paclitaxel (NSC125973), vemurafenib (NSC761431), MSA-2 (NSC828583), SN-011 (NSC837082), adavosertib (NSC754352), prexasertib (NSC758257), carboplatin (NSC241240) and oxaliplatin (NSC266046), were obtained from the National Cancer Institute (NCI) Developmental Therapeutics Program Chemical Repository (21). The FDA-approved anticancer drug set is available from the Developmental Therapeutics Program at https://dtp.cancer.gov/organization/dscb/obtaining/. […] The stock solutions were prepared in dimethyl sulfoxide (DMSO, Sigma-Aldrich, St. Louis, MO, cat. D2650), except for the platinum compounds which were prepared in saline (Quality Biological, Gaithersburg, MD, cat. 114-055-101), at 800-fold the tested concentration and stored at -70 degrees C prior to their use. All drugs and investigational agents were tested over a range starting from a high concentration at or near the clinical Cmax and decreasing in half-log increments. If the clinical Cmax for an agent had not been determined, the highest concentration tested was 10 microM, except for SN-38, which was tested at a high concentration of 1 microM.
Cell Culture. All cells were maintained in an incubator at 37 degrees C and 5% CO2 with 95% humidity. The PDC lines were cultured according to standard operating procedures established by the NCI PDMR (https://pdmr.cancer.gov). Table 3 of the manuscript, lists the cell lines along with the number of the three cell types plated to form the mct-spheroids and media for tumor cell growth. After thawing, all PDC lines, except 997537-175-T-J1-PDC and 415267-285-R-J2-PDC, were cultured in Matrigel-coated flasks prepared with a working solution of 1X Ham's F-12 nutrient mix, without supplementation (Thermo Fisher Scientific, cat. 11765054), 100 U/mL penicillin-streptomycin (Thermo Fisher Scientific, cat. 15140122), and 2.5% Matrigel (Corning Inc., Corning, NY, cat. 354248) for the first three passages. The two PDC lines 997537-175-T-J1-PDC and 415267-285-R-J2-PDC were cultured on uncoated flasks. The 857933-349-R-J2-PDC line was cultured in 6C/Colon 1B media containing advanced DMEM/F-12 (Thermo Fisher Scientific, cat. 12634028), 10 mM HEPES (Thermo Fisher Scientific, cat. 15630080), 1X GlutaMAX supplement (Thermo Fisher Scientific, cat. 35050061), 0.1 mg/mL primocin (InvivoGen, San Diego, CA, cat. ant-pm-2), 10% defined fetal bovine serum, heat inactivated (HyClone Laboratories Inc., Logan, UT, cat. SH30070.03HI), 50% L-WRN conditioned media (ATCC, cat. CRL-3276), 1.25 mM N-Acetyl-L-cysteine (Sigma-Aldrich, cat. A9165), 10 mM nicotinamide (Sigma-Aldrich, cat. N0636), 1X B-27 supplement (Thermo Fisher Scientific, cat. 17504044), 1X N-2 supplement (Thermo Fisher Scientific, cat. […]
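Also: luminescence signal used as a surrogate for viable cells; spheroids exposed to drugs for seven days before readout.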

SMILES: C#Cc1c(F)ccc2cc(O)cc(-c3ncc4c(N5CC6CCC(C5)N6)nc(OCC56CCCN5CC(F)C6)nc4c3F)c12 (configuration not stated)
- viability, T/C (compound 0.0316 µM): 105% and 99.2% and 101%
- viability, T/C (compound 0.1 µM): 106% and 111% and 92.5%
- viability, T/C (compound 0.316 µM): 92.2% and 97.5% and 113%
- viability, T/C (compound 1 µM): 105% and 93.2% and 113%
- viability, T/C (compound 3.16 µM): 110% and 93.3% and 94.4%
- viability, T/C (compound 10 µM): 106% and 94.6% and 107%
- IC50 (curve of compound): > 10000 nM

SMILES: CC1COCCN1c1cc(C2(O)CC3CCC(C2)O3)c2cnn(-c3ccn[nH]3)c2n1 (configuration not stated)
- viability, T/C (compound 0.0316 µM): 80.8% and 88.2% and 99.8%
- viability, T/C (compound 0.1 µM): 88.8% and 81.9% and 65.3%
- viability, T/C (compound 0.316 µM): 57.4% and 42.1% and 58.8%
- viability, T/C (compound 1 µM): 49% and 58.5% and 56.2%
- viability, T/C (compound 3.16 µM): 61.2% and 67.5% and 61.5%
- viability, T/C (compound 10 µM): 62.1% and 47.6% and 48.3%
- IC50 (curve of compound): > 10000 nM

SMILES: COC1C(OC(N)=O)C(O)C(Oc2ccc3c(O)c(NC(=O)c4ccc(O)c(CC=C(C)C)c4)c(=O)oc3c2C)OC1(C)C (configuration not stated)
- viability, T/C (compound 0.1 µM): 97.2% [middle of 13 runs]
- viability, T/C (compound 0.316 µM): 97.4% [middle of 13 runs]
- viability, T/C (compound 1 µM): 95.6% [middle of 13 runs]
- IC50 (compound alone, run of 11/27/2023): > 10000 nM

SMILES: O=C(Nc1ccc(O)c(NS(=O)(=O)c2ccc(F)cc2)c1)c1ccc(-c2ccccc2)cc1
- viability, T/C (compound 0.0316 µM): 103% and 89.4% and 123%
- viability, T/C (compound 0.1 µM): 101% and 92.4% and 98.4%
- viability, T/C (compound 0.316 µM): 113% and 97.4% and 81.8%
- viability, T/C (compound 1 µM): 88.3% and 109% and 103%
- viability, T/C (compound 3.16 µM): 99.2% and 116% and 91.7%
- viability, T/C (compound 10 µM): 98.9% and 103% and 91.2%
- IC50 (curve of compound): > 10000 nM

SMILES: C=CCn1c(=O)c2cnc(Nc3ccc(N4CCN(C)CC4)cc3)nc2n1-c1cccc(C(C)(C)O)n1 + COC1C(OC(N)=O)C(O)C(Oc2ccc3c(O)c(NC(=O)c4ccc(O)c(CC=C(C)C)c4)c(=O)oc3c2C)OC1(C)C
- IC50 (curve of first compound, second compound 0.0316 µM): > 1000 nM
- IC50 (curve of first compound, second compound 0.1 µM): > 1000 nM
- IC50 (curve of first compound, second compound 0.316 µM): > 1000 nM
- IC50 (curve of first compound, second compound 1 µM): > 1000 nM
- IC50 (curve of first compound, second compound 3.16 µM): > 1000 nM
- IC50 (curve of first compound, second compound 10 µM): > 1000 nM
- viability, T/C (second compound 0.0316 µM, first compound 0.00316 µM): 92.8%
- viability, T/C (second compound 0.0316 µM, first compound 0.01 µM): 102%
- viability, T/C (second compound 0.0316 µM, first compound 0.0316 µM): 105%
- viability, T/C (second compound 0.0316 µM, first compound 0.1 µM): 92.1%
- viability, T/C (second compound 0.0316 µM, first compound 0.316 µM): 105%
- viability, T/C (second compound 0.0316 µM, first compound 1 µM): 71%
- viability, T/C (second compound 0.1 µM, first compound 0.00316 µM): 115%
- viability, T/C (second compound 0.1 µM, first compound 0.01 µM): 106%
- viability, T/C (second compound 0.1 µM, first compound 0.0316 µM): 91.9%
- viability, T/C (second compound 0.1 µM, first compound 0.1 µM): 92.2%
- viability, T/C (second compound 0.1 µM, first compound 0.316 µM): 81.7%
- viability, T/C (second compound 0.1 µM, first compound 1 µM): 66.2%
- viability, T/C (second compound 0.316 µM, first compound 0.00316 µM): 88.5%
- viability, T/C (second compound 0.316 µM, first compound 0.01 µM): 101%
- viability, T/C (second compound 0.316 µM, first compound 0.0316 µM): 103%
- viability, T/C (second compound 0.316 µM, first compound 0.1 µM): 103%
- viability, T/C (second compound 0.316 µM, first compound 0.316 µM): 92.5%
- viability, T/C (second compound 0.316 µM, first compound 1 µM): 56.5%
- viability, T/C (second compound 1 µM, first compound 0.00316 µM): 103%
- viability, T/C (second compound 1 µM, first compound 0.01 µM): 98.6%
- viability, T/C (second compound 1 µM, first compound 0.0316 µM): 98.2%
- viability, T/C (second compound 1 µM, first compound 0.1 µM): 90.3%
- viability, T/C (second compound 1 µM, first compound 0.316 µM): 102%
- viability, T/C (second compound 1 µM, first compound 1 µM): 87.8%
- viability, T/C (second compound 3.16 µM, first compound 0.00316 µM): 115%
- viability, T/C (second compound 3.16 µM, first compound 0.01 µM): 93.9%
- viability, T/C (second compound 3.16 µM, first compound 0.0316 µM): 96.6%
- viability, T/C (second compound 3.16 µM, first compound 0.1 µM): 99.1%
- viability, T/C (second compound 3.16 µM, first compound 0.316 µM): 90.2%
- viability, T/C (second compound 3.16 µM, first compound 1 µM): 64.1%
- viability, T/C (second compound 10 µM, first compound 0.00316 µM): 98%
- viability, T/C (second compound 10 µM, first compound 0.01 µM): 82.5%
- viability, T/C (second compound 10 µM, first compound 0.0316 µM): 93.3%
- viability, T/C (second compound 10 µM, first compound 0.1 µM): 81.4%
- viability, T/C (second compound 10 µM, first compound 0.316 µM): 78.5%
- viability, T/C (second compound 10 µM, first compound 1 µM): 56.4%
